Source: US20250177398A1, “CARBONIC ANHYDRASE ENZYMES FOR REGULATING MAST CELL HEMATOPOIESIS AND TYPE 2 INFLAMMATION” (RUTGERS, THE STATE UNIVERSITY OF NEW JERSEY, priority 2015, published 2025)

Key:
[1] = test system: human CD34+ progenitor cells (mast cell development); assay: Human mast cell cultures from blood CD34+ progenitor cells; format: cell-based; conditions: human CD34+ cells with SCF, consistent across 5 donors
Excerpt: Blood from healthy human donors was obtained from the New York Blood Center under protocols approved by the Rutgers Institutional Review Boards (IRB). Peripheral blood cells were isolated using a Ficoll gradient. CD34^+ cells were purified using a CD34 MicroBead isolation kit according to the manufacturer's protocol (Miltenyi Biotec, 130-048-702). 25-50×10^3 CD34^+ cells were placed in methocult ([…]) supplemented with stem cell factor (SCF), IL-6 and IL-3 as described previously (Saito, et al., 2006. Nat Protoc 1:2178-2183). Mast cell populations were evaluated on day 14 post-culture.

[2] = test system: Aspergillus fumigatus-induced allergic airway inflammation; assay: Aspergillus fumigatus extract-induced allergic asthma; format: in vivo, mouse; conditions: mice challenged intranasally with A. fumigatus extract for 3 weeks, MZ (FIG. 5)
Method: Aspergillus-induced allergic asthma. Mice were challenged with Aspergillus fumigatus allergic extract as previously described (Mathias, C. B., et al., J Immunol 182, 2416-2424 (2009)). Briefly, mice were challenged (intranasally) 3 times a week for 3 weeks with 50 μl of aqueous Aspergillus fumigatus Allergenic Extract (Greer laboratories: item # M3). After 3 weeks mice were sacrificed and BAL and lungs were processed as previously described (Espinosa, V., et al., PLOS Pathog 10, e1003940 (2014)).

[3] = test system: food allergy-induced mast cell responses; assay: Food allergy-like disease (OVA sensitization and challenge); format: in vivo, mouse; conditions: OVA sensitized and challenged mice
Method: RNA from sections of small intestine was isolated by homogenization in TRIzol (Invitrogen) followed by phenol-chloroform extraction and isopropanol precipitation. cDNA was generated per standard protocol with Superscript reverse transcriptase (Invitrogen) and used as input for real-time PCR. Real-time data were analyzed using the ΔΔCT method using SYBR Green chemistry (Applied Biosystems) with β-actin serving as the endogenous housekeeping gene. All reactions were run on an ABI 7500 Fast Real-Time PCR System (Applied Biosystems). Samples were normalized to naïve controls. The following QuantiTech primer assays from Qiagen were used: Mcpt1 (QT00157864), IL-4 (QT00160678), IL-9 (QT00107555), Arg1 (QT00134288), […] (QT00254359), Car1 (QT01058113) and Car2 (QT00494592). Single cell suspensions were made from mesenteric, or skin draining lymph nodes. Lymph node cells were cultured in RPMI complete medium and treated with and without anti-CD3 (BD Pharmingen: clone 145-2C11) and anti-CD28 antibodies (BD Pharmingen: clone 37.51) for 72 hours. Standard sandwich ELISA (eBioscience) was performed to measure IL-4 (clones 11B11 and BVD6-24G2), IL-5 (clones TRFK5 and TRFK4) and IL-13 (clones eBio13A and eBio1316H) levels in the cell-free supernatants. Serum quantities of Mcpt1 and IgE were measured by commercial sandwich ELISA kits (BD Biosciences, eBioscience). […]

[4] = test system: bone marrow-resident progenitor cells (mast cell and basophil development); assay: Murine mast cell and basophil developmental assay: BM progenitor cells cultured with IL-3; format: cell-based, mouse; conditions: BM cells + IL-3 10 ng/mL, 30 μg/mL MZ
Method: FIGS. 6A-6B. Bone marrow-resident progenitor cells were cultured in media, media treated with IL-3 (10 ng/ml), media treated with IL-3 and compound 8 (25 ng/ml) (FIG. 6A) or, media treated with IL-3 and compound 16 (25, 50, or 75 ng/ml) (FIG. 6B). On day 7 post-culture mast cells were identified by flow cytometric analysis. Results are representative of 2 independent experiments with at least 4 technical replicated per experiment. Statistical analysis was performed using a Student's t-test. (*,p<0.05) (***,p<0.001).
BM cells were isolated from the femur of WT mice and cultured in the presence of 10 ng/mL of IL-3 and vehicle (1:10 DMSO to RPMI complete media) or 30 μg/mL MZ. Fresh IL-3 with either vehicle or MZ were added daily, and mast cell and basophil populations were evaluated on day 7 post-culture.
Further, it is illustrated that genetically editing Car1 in stem cells via CRISPR/Cas9 technology decreases their capacity to develop into mature mast cells. […] However, whether inhibitors that selectively target Car1 can be used to inhibit mast cell development was unknown. […] Therefore, it was sought to be determined whether compound 8 and/or compound 16 could inhibit mast cell development from progenitor cell populations. To test this, the mast cell developmental assay was employed and bone marrow-resident progenitor cells were treated with IL-3 to promote mast cell development.

## CC(=O)/N=c1/sc(S(N)(=O)=O)nn1C [MZ, methazolamide]
[1]; IL-6, IL-3, day 14 (FIGS. 4L-4M)
  percentages of mast cells: significantly reduced
[1]; IL-6, IL-3, day 14 (FIGS. 4L-4N)
  total numbers of mast cells: significantly reduced
[2]
  eosinophilic airway inflammation (eosinophils in BAL and lung): significantly reduced
  pulmonary mast cell responses: significantly reduced
[3]; 2-3 mg MZ i.p. daily (FIG. 4A-D)
  mast cell responses (serum Mcpt1, intestinal mcpt1 expression, intestinal mast cells by histology): significantly decreased
[3]; 2-3 mg MZ i.p. daily (FIG. 4E)
  serum IgE levels: significantly increased
[4]; day 7
  basophil numbers: decreased
[4]; day 7 (FIG. 1F)
  percentages of basophils: significantly increased
[4]; day 7 post-culture (FIG. 1E)
  mast cell populations compared to controls: significantly reduced
